{"source": "patent EP2730586B1", "about": "“PROTEIN-P[…] OBTAINED FROM TISSUES OF HOOFED LIVESTOCK EMBRYOS, PROCESS FOR PREPARING SAME AND PHARMACEUTICAL COMPOSITION” (Aktsionernoe Obschestvo \"Pharm-Sintez\", priority 2011, dated 2012)", "system": "mice marrow cells", "method": "The study objective was detection and quantitative estimate of cytogenetic (mutagenic) activity of pharmacologic substances in polychromatophil cells (PCC) of mammal marrow. The method is based on microscopic recording of cells with micronuclei.\nThe experiments were performed to 2 months old male and female F1 (CBAx C57BI6/J) cross-breed mice weighing 18-20 g. Each group included 6 animals. The animals were kept at 12 hours light pattern with free food and water access. […] Three sessions of experiments were carried out with corresponding controls: therapeutic dose was tested on male animals with a single introduction; subtoxic dose was tested on male animals with a single introduction; therapeutic dose was tested on male animals with a single introduction; subtoxic dose was tested on male animals and female with five-time introduction.\nSeven animal groups were formed: four experimental groups and three corresponding reference groups. The substance in the amount of 0.1 mg/kg was introduced five times at 24 hours interval to males and females. All animals were sacrificed 6 hours upon the last introduction of the protein/polypeptide complex.\nIn two other experimental groups, the protein/polypeptide complex was introduced in single dosing to males in doses of 0.2 mg/kg and 0.5 mg/kg.\nNormal saline solvent was used as a negative control. It was introduced intraperitoneally to male and female mice of two reference groups for the same period and in the same amount as to the experimental animals.\nMarrow cell preparations for micronuclei count were made by a standard method in compliance with guidelines [formula] […] The animals were sacrificed through cervical dislocation 6 hours after the last introduction. Both thigh bones were detached and muscles were removed from them. In order to wash out the marrow, fetal calf serum was used (produced by NPP PanEko). The marrow from both thigh bones was washed out into a microtube using a syringe. […] 2,000 polychromatophil cells from each animal were analyzed in encoded preparations.", "data": [{"smiles": "O=P1(N(CCCl)CCCl)NCCCO1", "note": "(stereo not drawn) [Cyclophosphamide, cyclophosphamide]", "values": [{"measurement": "polychromatophilic to normochromatic erythrocytes ratio", "setting": "20 mg/kg, compared to control P<0.005", "value": "shift to the latter"}, {"measurement": "increased frequency of micronucleus cells", "setting": "male mice, 20 mg/kg intraperitoneally, versus reference, P<0.001", "value": 19.6, "unit": "times"}, {"measurement": "frequency of micronucleus cells", "setting": "male mice, 20 mg/kg intraperitoneally, 3.16 % in reference", "value": 62.1, "unit": "%"}]}]}
